These results are taken from US9079913B2, “Spiro-oxindole MDM2 antagonists” (The Regents of the University of Michigan, priority 2009, dated 2015).

Like-named read-outs stand apart in the source and are kept apart here.

A short description of series [1]: Microsomal stability study, negative control incubation. The class given is in vitro ADME.
Series [2] is described as follows: In vitro microsomal stability, dog. Conditions: for Microsomal stability, % remaining: Dog microsomes; for microsomal stability (in words): dog microsomes. The class given is in vitro ADME.
A short description of series [3]: In vitro microsomal stability, human. Conditions: for Microsomal stability, % remaining: Human microsomes; for microsomal stability (in words) / % of compound remaining when incubated in human liver microsomes with NADPH: human liver microsomes. The class given is in vitro ADME.
Series [4] can be described thus: In vitro microsomal stability, rat. The class given is in vitro ADME. The following applies: for Microsomal stability, % remaining: Rat microsomes; for microsomal stability (in words) / % of compound remaining when incubated in rat liver microsomes with NADPH: rat liver microsomes. On the technique in general: Liver microsomes are a subcellular fraction often used to study metabolism.

Series [5] concerns Isogenic HCT-116 colon cancer cell lines. Briefly: cells. Conditions: Homo sapiens. The class given is cell-based.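 Further: cells grown in 96-well plates in McCoy's 5A medium with 10% FBS, exposed to compound for 4 days.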
Description: Cells were seeded in 96-well flat bottom cell culture plates at a density of 2−3×10^3 cells/well with compounds and incubated for 4 days.
Series [6] relates to SJSA-1 xenograft tumors. Briefly: In vivo efficacy, SJSA-1 xenograft model (tumor volume). Also noted: species or system C.B-17 SCID mice. Conditions: PO 100 mg/kg; for % Tumor Growth Inhib. T/C Control 750 mm^3 D27: Exp. No. 1, SJSA-1 xenograft; for % Tumor Growth Inhib. T/C Control 750 mm^3 D24: Exp. No. 2, SJSA-1 xenograft.
Series [7] relates to cancer cell lines with wild-type p53 / mutated or deleted p53 (ATCC). Briefly: Cell growth assay (WST-8), other cancer cell lines. The class given is cell-based. The following applies: Homo sapiens. (Formazan colour is commonly taken as a measure of viable cells.)
The target in series [8] is recombinant human His-tagged MDM2 protein (residues 1-118) (Homo sapiens (Human), UniProt Q00987). Nature of the series: Fluorescence-polarization MDM2 binding assay.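 Further: fluorescence polarization read after three hours of incubation in potassium phosphate buffer containing bovine gamma globulin and Triton X-100.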 The following applies: Table 19A; FP binding assay; read-out: MDM2 IC50.
Description: The assay was performed in the buffer: 100 mM potassium phosphate, pH 7.5; 100 μg/mL bovine gamma globulin; 0.02% sodium azide, 0.01% Triton X-100) and the polarization values were measured after 3 h of incubation using an ULTRA READER (Tecan U.S. Inc., Research Triangle Park, N.C.). […] The Kd value was calculated using the equation: Kd value=IC50−L0/2.
The polarization values were measured after 3 h of incubation. […] Curve fitting was performed using [sequence] PRISM software (GraphPad Software, Inc., San Diego, Calif.). […] Compounds shown in Tables 19A-D as the free base were tested either as the free base or as the CF3CO2H (TFA) or HCl salt.
The nature of series [9]: Pharmacokinetic studies in rats. The class given is in vivo, rat. How it is done:
Pharmacokinetic studies on MDM2 inhibitors were carried out in rat. For comparison, the MDM2 inhibitor, AT-219, was also studied.

Where [10] appears, read: HCT-116, read-out: HCT-116 (p53-/-) IC50, Table 19A, HCT-116 p53-/-, cell growth.
Where [11] appears, read: HCT-116, read-out: HCT-116 (p53 wild-type) IC50, Table 19A, HCT-116 p53 wild-type, cell growth.
[12] abbreviates: LNCaP, Table 19A, LNCAP cells, p53 wild-type, cell growth, read-out: LNCAP (p53 wild-type) IC50.
[13] abbreviates: PC-3, Table 19A, PC-3 cells, deleted p53, cell growth, read-out: PC-3 (deleted p53) IC50.
Setting [14] is: SJSA-1, Table 19A, SJSA-1 cells, p53 wild-type, cell growth, read-out: SJSA-1 (p53 wild-type) IC50.
Setting [15] is: HCT-116, read-out: HCT-116 (p53-/-) IC50.
Setting [16] is: HCT-116, read-out: HCT-116 (p53 wild-type) IC50.
Setting [17] is: LNCaP, read-out: LNCAP (p53 wild-type) IC50.
Where [18] appears, read: PC-3, read-out: PC-3 (deleted p53) IC50.
The mark [19] stands for this setting: SJSA-1, read-out: SJSA-1 (p53 wild-type) IC50.

recombinant human His-tagged MDM2 protein (residues 1-118), sequence (Q00987 1-118): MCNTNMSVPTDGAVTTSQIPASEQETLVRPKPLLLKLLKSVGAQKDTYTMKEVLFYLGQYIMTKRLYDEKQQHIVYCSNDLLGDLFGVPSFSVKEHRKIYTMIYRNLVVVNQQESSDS

As for `CC(C)(C)C[C@H]1N[C@@H](C(=O)NCC[C@H](O)CO)[C@H](c2cccc(Cl)c2F)[C@@]12C(=O)Nc1cc(Cl)ccc12` [MI-147, reference compound], the “Microsomal stability, % remaining” value in series [1] (0 min) is 100.00%; in series [1] (5 min), 94.73%; in [1] (10 min), 90.77%; in series [1] (15 min) it was 93.43%; in series [1] (30 min) it was 94.14%; in [1] (45 min), 91.07%. Besides, the “Microsomal stability, % remaining” value in [1] (60 min) stood at 85.38%; in [2] (0 min), 100.00%; in series [2] (5 min), 77.84%; in series [2] (10 min), 47.98%; in [2] (15 min), 44.83%; in [2] (30 min), 21.52%. The “Microsomal stability, % remaining” value in series [2] (45 min) is recorded as 17.08%; in [2] (60 min) it was 12.15%; in series [3] (0 min), 100.00%; in series [3] (5 min), 78.23%; in [3] (10 min), 58.01%; in series [3] (15 min) it was 41.59%. In addition, the “Microsomal stability, % remaining” value stood at 19.67% in series [3] (30 min); 10.81% in series [3] (45 min); 7.18% in series [3] (60 min); 100.00% in [4] (0 min); 68.05% in [4] (5 min); 31.04% in series [4] (10 min). The “Microsomal stability, % remaining” value was determined as 16.85% in [4] (15 min), 6.18% in series [4] (30 min), 4.40% in series [4] (45 min) and 3.43% in series [4] (60 min). Further, the “microsomal stability (in words)” value in series [2], in [3] and in series [4] was “metabolized fairly rapidly” each time.
On to `CC(C)(C)C[C@H]1N[C@@H](C(=O)NCC[C@H](O)CO)[C@H](c2ccc(F)c(Cl)c2)[C@@]12C(=O)Nc1cc(Cl)c(F)cc12` [MI-319, reference compound], for which the “Microsomal stability, % remaining” value in [1] (0 min) amounted to 100.00%; in series [1] (5 min), 95.37%; in series [1] (10 min) it was 90.75%; in [1] (15 min), 96.26%; in series [1] (30 min), 86.12%; in series [1] (45 min), 91.41%. Besides, the “Microsomal stability, % remaining” value in [1] (60 min) worked out at 85.90%; in [2] (0 min), 100.00%; in series [2] (5 min), 108.25%; in series [2] (10 min), 69.29%; in series [2] (15 min), 57.20%; in series [2] (30 min) it was 41.84%. Moreover, the “Microsomal stability, % remaining” value is given as 29.39% in series [2] (45 min); 27.06% in [2] (60 min); 100.00% in [3] (0 min); 82.09% in series [3] (5 min); 60.88% in series [3] (10 min); 43.86% in series [3] (15 min). Moreover, the “Microsomal stability, % remaining” value in series [3] (30 min) came out at 24.79%; in series [3] (45 min), 10.66%; in [3] (60 min), 16.31%; in series [4] (0 min) it was 100.00%; in series [4] (5 min), 64.80%; in series [4] (10 min), 41.96%. For the same compound, the “Microsomal stability, % remaining” value turned out to be 30.71% in series [4] (15 min), 23.11% in series [4] (30 min), 23.01% in [4] (45 min) and 24.01% in [4] (60 min). For the same compound, the “microsomal stability (in words)” value in [2], in series [3] and in series [4] was “metabolized fairly rapidly” each time.
`CC(C)(C)C[C@H]1N[C@@H](C(=O)NCCN2CCN(S(C)(=O)=O)CC2)[C@H](c2cccc(Cl)c2F)[C@@]12C(=O)Nc1cc(Cl)ccc12` [MI-519-49]: the IC50 in [5] (setting [10]) was 12.7 µM; in [5] (setting [11]), 0.84 µM; in series [7] (setting [12]), 850 nM; in series [7] (setting [13]), 8100 nM; in [8] it was less than 1000 nM. Also, the “% Tumor Growth Inhib. T/C Control 750 mm^3 D27” value in series [6] is 63.8%.
As to `CC(C)(C)C[C@H]1N[C@@H](C(N)=O)[C@H](c2cccc(Cl)c2F)[C@@]12C(=O)Nc1cc(Cl)ccc12` [MI-519-50], the IC50 in [5] (setting [10]) is 23.7 µM; in [5] (setting [11]) it was 0.9 ± 0.2 µM; in [7] (setting [12]), 1300 ± 400 nM; in series [7] (setting [13]) it was 16900 ± 4500 nM; in series [7] (setting [14]) it was 1700 ± 1700 nM; in series [8] it was less than 1000 nM. Moreover, in series [6], the “% Tumor Growth Inhib. T/C Control 750 mm^3 D27” value is given as 41.1%.
For orientation: half-life means how long it takes for the measured level to halve. With `CC(C)(C)C[C@H]1N[C@@H](C(=O)N[C@H]2CC[C@@H](O)C2)[C@H](c2cccc(Cl)c2F)[C@@]12C(=O)Nc1cc(Cl)ccc12` [MI-519-51], the CLz in series [9] (rat, IV, 5 mg/kg, plasma, parent compound) worked out at 4.5 L/h/kg. In addition, in series [9] (rat, plasma, iv, 5 mg/kg, rat, IV, 5 mg/kg, plasma, parent compound, read-out: Vz), the Vd was 7.5 L/kg. For the same compound, in [9] (rats, intravenous and oral routes of dosing), the “pharmacokinetic profile (in words)” value is reported as “inferior overall PK parameters to MI-219”. The IC50 in series [5] (setting [15]) came out at 13.4 ± 0.8 µM; in series [5] (setting [16]), 0.6 ± 0.3 µM; in series [7] (setting [17]), 600 ± 200 nM; in series [7] (setting [18]), 8200 ± 2500 nM; in series [7] (setting [19]) it was 600 ± 200 nM. For the same compound, in series [6], the “% Tumor Growth Inhib. T/C Control 750 mm^3 D27” value was 34.0%. Besides, the “microsomal stability (in words)” value in series [3] and in series [4] was “inferior stability to MI-219” throughout. Besides, the “% of compound remaining when incubated in human liver microsomes with NADPH” value in series [3] (0 min) is given as 100.00%; in [3] (5 min), 36.05%; in [3] (10 min) it was 9.88%; in [3] (15 min), 3.95%; in series [3] (30 min) it was 0.00%; in series [3] (45 min), 0.00%. In addition, in series [3] (60 min), the “% of compound remaining when incubated in human liver microsomes with NADPH” value is listed as 0.00%. Also, the half-life in series [3] (human, liver microsomes, human liver microsomes with NADPH) is 3.15 min; in series [4] (rat, liver microsomes, rat liver microsomes with NADPH) it was 2.18 min. Moreover, the “% of compound remaining when incubated in rat liver microsomes with NADPH” value was found to be 100.00% in [4] (0 min); 12.77% in series [4] (5 min); 2.84% in series [4] (10 min); 0.83% in series [4] (15 min); 0.00% in series [4] (30 min); 0.00% in [4] (45 min). In addition, in series [4] (60 min), the “% of compound remaining when incubated in rat liver microsomes with NADPH” value came out at 0.00%.
Regarding `CC(C)(C)C[C@H]1N[C@@H](C(=O)NCC(C)(C)O)[C@H](c2cccc(Cl)c2F)[C@@]12C(=O)Nc1cc(Cl)ccc12` [MI-519-62], the IC50 in series [5] (setting [15]) is more than 10 µM; in [5] (setting [16]), less than 3 µM; in series [7] (setting [17]) it was less than 3000 nM; in [7] (setting [18]) it was more than 10000 nM; in series [7] (setting [19]), less than 3000 nM. Further, the “% Tumor Growth Inhib. T/C Control 750 mm^3 D24” value in series [6] is recorded as 59.5%.
Take `CC(C)(C)C[C@H]1N[C@@H](C(=O)NC2CCN(S(C)(=O)=O)CC2)[C@H](c2cccc(Cl)c2F)[C@@]12C(=O)Nc1cc(Cl)ccc12` [MI-779]: the IC50 in [5] (setting [10]) was 13.6 µM; in series [5] (setting [11]) it was 2.5 µM; in series [7] (setting [12]), 1300 nM; in [7] (setting [13]) it was 11600 nM; in series [7] (setting [14]) it was 1000 nM; in [8], less than 100 nM. In addition, the “% Tumor Growth Inhib. T/C Control 750 mm^3 D24” value in series [6] was 66.1%.
Turning to `CCNC(=O)N1CCC(NC(=O)[C@@H]2N[C@H](CC(C)(C)C)[C@]3(C(=O)Nc4cc(Cl)ccc43)[C@H]2c2cccc(Cl)c2F)CC1` [MI-781], the IC50 was 10.1 µM in series [5] (setting [10]), 0.4 µM in [5] (setting [11]), 700 nM in series [7] (setting [14]) and less than 100 nM in series [8]. Further, the “% Tumor Growth Inhib. T/C Control 750 mm^3 D24” value in series [6] came to 75.5%.
